Values of other authors in patent US20070166389A1, “Stabilized lyophilized blood platelets” (priority 2005, published 2007).

Tests used:
sickle erythrocytes = details: glyceraldehyde treatment in vitro
[1] = dosages effective for increasing bile salt secretion

deleterious effects of the treatment (sickle erythrocytes) | SMILES | life span in vivo of sickle erythrocytes (sickle erythrocytes) | abnormal symptoms in liver or kidney [1]
failed to show any deleterious effects | O=CC(O)CO (stereo not drawn) [glyceraldehyde] | prolongation of the life span of sickle erythrocytes | 
 | COC(=O)C1=CO[C@@H](O)[C@@H]2C(CO)=CC[C@H]12 [genipin] |  | do not cause any abnormal symptoms in the liver or kidney
